Earlier results, collected in US20080188510A1, “NOVEL METHODS USING ZONISAMIDE” (Eisai R & D Management Co., Ltd., priority 2005, published 2008).

Test system: dopaminergic neurodegeneration induced by MPTP
Details: MPTP (1-methyl-4-phenyl-1,2,3,6-tetrahydropyridine) induced; cited from earlier work

Q: With `NS(=O)(=O)Cc1noc2ccccc12` [zonisamide, 3-sulfamoylmethyl-1,2-benzisoxazole] as the compound, how does the “suppressant action to dopaminergic neurodegeneration induced by MPTP” value read?
A: The value was “extremely strong suppressant action”.
